Here are results for 10 compounds from patent US11591341B2 (ALIGOS THERAPEUTICS, INC., priority 2019, dated 2023).

The experiment concerns HBV. As to the kind of experiment: HBV-DNA Antiviral Assay Using HepG2.117 Cells (intracellular HBV DNA by qPCR). Type of experiment: cell-based, hepatitis B virus (genotype D). Conditions: Hepatitis B virus, HepG2.117. The procedure, abridged:
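Endpoint: qPCR copy number of intracellular HBV DNA after 3-day compound exposure, with inhibition set relative to the 2% DMSO control. The cells were doxycycline-free HepG2.117 carrying a Tet-off genotype D genome, dosed at nine 4-fold dilutions. A duplicate plate gave ATP-based viability (CC50).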
Turning to `O=C(NCc1ccccc1-c1ncccn1)c1c2n(c(=O)n1-c1ccc(OCC(F)(F)F)cc1)CCN(C(=O)c1ccc(Br)c(Cl)c1)C2` [Example 377, 7-(4-bromo-3-chloro-benzoyl)-3-oxo-N-[(2-pyrimidin-2-ylphenyl)methyl]-2-[4-(2,2,2-trifluoroethoxy)phenyl]-6,8-dihydro-5H-imidazo[1,5-a]pyrazine-1-carboxamide], the EC50 is < 100 nM.

Take `O=C(NCc1ccccc1-c1cocn1)c1c2n(c(=O)n1-c1ccc(OCC(F)(F)F)cc1)CCN(C(=O)c1ccc(Br)c(Cl)c1)C2` [Example 386, 7-(4-bromo-3-chloro-benzoyl)-N-[(2-oxazol-4-ylphenyl)methyl]-3-oxo-2-[4-(2,2,2-trifluoroethoxy)phenyl]-6,8-dihydro-5H-imidazo[1,5-a]pyrazine-1-carboxamide]: the half-maximal effective concentration (EC50) was 100 to 500 nM.

Consider `O=C(NCc1ccccc1-c1cccnn1)c1c2n(c(=O)n1-c1ccc(OC3CC3)cc1)CCN(C(=O)c1ccc(Br)c(Cl)c1)C2` [Example 387, 7-(4-bromo-3-chloro-benozyl)-2-[4-(cyclopropoxy)phenyl]-3-oxo-N-[(2-pyridazin-3-ylphenyl)methyl]-6,8-dihydro-5H-imidazo[1,5-a]pyrazine-1-carboxamide], for which the EC50 is < 100 nM.

Regarding `O=C(NCc1ccccc1-c1cccnn1)c1c2n(c(=O)n1-c1ccc(OCC(F)(F)F)cc1)CCN(C(=O)c1ccc(Br)c(Cl)c1)C2` [Example 388, 7-(4-bromo-3-chloro-benzoyl)-3-oxo-N-[(2-pyridazin-3-ylphenyl)methyl]-2-[4-(2,2,2-trifluoroethoxy)phenyl]-6,8-dihydro-5H-imidazo[1,5-a]pyrazine-1-carboxamide], the EC50 is < 100 nM.

In turn, `O=C(NCc1ccccc1)c1c2n(c(=O)n1-c1ccc3nonc3c1)CCN(C(=O)c1ccc(Br)c(Cl)c1)C2` [Example 389, 2-(2,1,3-benzoxadiazol-5-yl)-N-benzyl-7-(4-bromo-3-chloro-benzoyl)-3-oxo-6,8-dihydro-5H-imidazo[1,5-a]pyrazine-1-carboxamide] displayed a concentration for a half-maximal effect (EC50) of 500 to 5000 nM.

Compound `O=C(NCc1ccccc1)c1c2n(c(=O)n1-c1ccc(N3CCC3)cc1)CCN(C(=O)c1ccc(Br)c(Cl)c1)C2` [Example 390, 2-[4-(azetidin-1-yl)phenyl]-N-benzyl-7-(4-bromo-3-chloro-benzoyl)-3-oxo-6,8-dihydro-5H-imidazo[1,5-a]pyrazine-1-carboxamide] showed an EC50 of 100 to 500 nM.

The compound `O=C(NCc1ccccc1)c1c2n(c(=O)n1-c1ccc(N3CC(F)(F)C3)cc1)CCN(C(=O)c1ccc(Br)c(Cl)c1)C2` [Example 391, N-benzyl-7-(4-bromo-3-chloro-benzoyl)-2-[4-(3,3-difluoroazetidin-1-yl)phenyl]-3-oxo-6,8-dihydro-5H-imidazo[1,5-a]pyrazine-1-carboxamide] yielded a concentration for a half-maximal effect (EC50) of 100 to 500 nM.

For the compound `O=C(NCc1ccccc1)c1c2n(c(=O)n1-c1ccc(N3CCC(F)(F)C3)cc1)CCN(C(=O)c1ccc(Br)c(Cl)c1)C2` [Example 392, N-benzyl-7-(4-bromo-3-chloro-benzoyl)-2-[4-(3,3-difluoropyrrolidin-1-yl)phenyl]-3-oxo-6,8-dihydro-5H-imidazo[1,5-a]pyrazine-1-carboxamide], the EC50 lay within 100 to 500 nM.

In turn, `CC(C)(Oc1ccc(-n2c(C(=O)NCc3ccccc3)c3n(c2=O)CCN(C(=O)c2ccc(Br)c(Cl)c2)C3)cc1)C(F)(F)F` [Example 393, N-benzyl-7-(4-bromo-3-chloro-benzoyl)-3-oxo-2-[4-(2,2,2-trifluoro-1,1-dimethyl-ethoxy)phenyl]-6,8-dihydro-5H-imidazo[1,5-a]pyrazine-1-carboxamide] came in with a concentration for a half-maximal effect (EC50) of 500 to 5000 nM.

`O=C(NCc1ccccc1)c1c2n(c(=O)n1-c1ccc(-n3cncn3)cc1)CCN(C(=O)c1ccc(Br)c(Cl)c1)C2` [Example 395, N-benzyl-7-(4-bromo-3-chloro-benzoyl)-3-oxo-2-[4-(1,2,4-triazol-1-yl)phenyl]-6,8-dihydro-5H-imidazo[1,5-a]pyrazine-1-carboxamide] gave a concentration giving a half-maximal response (EC50) of 500 to 5000 nM.
